# In PubChem BioAssay AID540268 (Broad Institute, 2011):
# The source made the active and inactive calls. The rule behind the calls is not given here.
# Test: growth inhibition of yeast carrying parasite Hsp90, dose response, anti-malarial Hsp90 inhibitor project, ATP luminescence, 48 h, cherry-picked samples (AID 540268);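 for activity change, negative = inhibition: 0% = neutral control wells and -100% = positive control wells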
# Settings: yeast expressing the parasite Hsp90, ATP luminescence; for activity change, negative = inhibition: at 26 µM (top of the series)
SMILES,AC50 [µM],"activity change, negative = inhibition"
CCC(C)(C)c1ccc(OCCCC[n+]2cccc(C)c2C)c(C(C)(C)CC)c1,4.06,
O=[N+]([O-])/C=C/c1cn(Cc2ccccc2)c2ccccc12,5.99,
Cc1cccc(NC(=S)N/N=C/c2ccc([N+](=O)[O-])s2)c1,,-14.3% (inactive)
COc1ccccc1C(=O)NNC(=S)NC(=O)c1ccco1,2.41,
c1ccc(-c2ccc(C(c3ccccc3)n3ccnc3)cc2)cc1 (stereo not given),1.07,
Cc1cccc(C)c1NC(=O)C(Cl)C(=O)c1ccccc1 (stereo not given),1.11,
CC1=CC(C)CC(C)OC(=O)CC(c2ccc(O)cc2)NC(=O)C(Cc2c(Br)[nH]c3ccccc23)N(C)C(=O)C(C)NC(=O)C(C)C1 (stereo not given),5.2,
COc1ccc2c(c1)OC[C@H]1[C@H]2N2C(=O)c3cc(OC)ccc3NC(=O)[C@@]2(C)[C@H]1c1ccccc1,24.7,
Cc1sc2nc(C3CC3)nc(SCC(=O)NCc3ccco3)c2c1C,7.33,
Cc1csc(CNc2ncnc3ccc(-c4cccc(Cl)c4)cc23)c1,8.17,
COc1cc(OC)cc(N2C(=O)CC(N3CCC(C(=O)N4CCCCC4)CC3)C2=O)c1 (stereo not given),8.21,
Oc1cccc2ccc(/C=C/c3ccccc3Cl)nc12,16.3,
C[C@@]12C(=O)Nc3ccc(F)cc3C(=O)N1[C@H]1c3ccccc3OC[C@@H]1[C@@H]2c1ccccc1,< 0.195,
CCOc1ccc(C(Nc2cccnc2)c2cc(Cl)c3cccnc3c2O)cc1 (stereo not given),1.5,
COc1ccc(N(C(=O)c2ccncc2)S(=O)(=O)c2ccc(Cl)cc2)cc1,0.562,
COc1ccc(C(=O)/C=C/c2ccc(-c3ccccc3)cc2)cc1CSCC(=O)O,6.01,
C(=NN=C1c2ccccc2-c2ccccc21)c1c[nH]c2ccccc12,2.72,
O=C(Nc1nc(-c2ccccn2)cs1)c1ncc(Cl)c(Cl)c1Cl,2.9,
CCCC(=O)NC(c1ccccc1)c1ccc2cccnc2c1O (stereo not given),4.7,
CC(=O)Nc1ccc2c(c1)Cc1cc(N3C(=O)C=CC3=O)ccc1-2,0.654,
O=C(CSc1ccc(-c2ccccn2)nn1)Nc1ccccc1,,-18.1% (inactive)
O=C(OCC(=O)C12CC3CC(CC(C3)C1)C2)c1ccc(O)cc1,1.06,
O=c1cc2oc3cc(O)c(O)cc3c(-c3ccccc3[N+](=O)[O-])c-2cc1O,3.19,
Cc1ccc(C(=O)ONC(=O)c2ccc(Cl)cc2)cc1[N+](=O)[O-],0.387,
CC(=O)NC(c1ccc2ccccc2c1)c1ccc2cccnc2c1O (stereo not given),1.75,
CN1CCN(C(c2ccccn2)c2cc(Cl)c3cccnc3c2O)CC1 (stereo not given),7.88,
O=C(Nc1nc(-c2ccccc2)c(-c2ccccc2)o1)c1ccc(F)cc1,8.21,
Cc1ccc(C2=NC(C)(C)N=C2SCC(=O)Nc2ccc(Cl)cc2)cc1,26.2,

SMILES,AC50 [µM],"activity change, negative = inhibition"
CC1(C)C=Cc2c(ccc3c2OC[C@H](c2ccc(O)cc2O)C3)O1,4.6,
COc1cccc(/C=N/Nc2ncnc3scc(-c4ccccc4)c23)c1O,15.3,
CCOC(=O)/C=C/C(=O)Nc1cccc([N+](=O)[O-])c1,3.5,
O=C(c1cccs1)c1no[n+]([O-])c1C(=O)c1cccs1,2.18,
Cc1ccc(/C=C/C(=O)c2ccccc(=O)c2O)cc1C,8.01,
Cc1ccc(C(=O)N2CCN(c3ccccc3Cl)CC2)cc1[N+](=O)[O-],4.09,
Cc1ccc(S(=O)(=O)c2ccc([N+](=O)[O-])cn2)cc1,3.87,
O=C(/C=C/c1ccc(Cl)c([N+](=O)[O-])c1)c1cccnc1,0.806,
CC(=NNC(=S)Nc1cccc(Cl)c1)c1ccccn1,16.6,
CCCCCCCCCCCCCCCCn1cc[n+](CC(C)=O)c1,4.39,
CCN(CC)C1CC(=O)N(c2cccc(Cl)c2)C1=O (stereo not given),0.97,
COc1ccc2c(c1)[C@H]1[C@H](CO2)[C@H](c2ccccc2)[C@]2(C)C(=O)Nc3ccc(C)cc3C(=O)N12,4.75,
COc1ccc(S(=O)(=O)N(C(=O)c2ccncc2)c2ccc(OC(=O)c3ccncc3)cc2)cc1,1.68,
CC1(c2nnc(Cc3ccccc3)o2)CC(c2ccccc2[N+](=O)[O-])=NO1 (stereo not given),1.77,
COc1cc(/C=N/O)cc(Br)c1OCc1cccc(Cl)c1,8.2,
O=C(OCC(=O)C12CC3CC(CC(C3)C1)C2)c1ccc(O)cc1O,15.6,
CCN(CC)N=Nc1[nH]nc2nc(C)cc(C)c12,4.33,
CC(=NNC(=S)N1CCC1)c1ccccn1,1.72,
COc1ccc(CCN2C(=O)C=CC2=O)cc1OC,1.41,
C=CCn1c(C)cc(C(=O)CSc2nc3ccccc3c(=O)[nH]2)c1C,3.28,
O=C(/C(=C/c1cccc(Cl)c1)c1nc2ccccc2[nH]1)c1ccccc1,,49.8% (inactive)
COc1ccc2oc(/C=C/N(C)C)c(C(=O)c3ccc(Cl)cc3)c2c1,3.78,
F[B-](F)(F)c1cc2cc(Br)ccc2s1,6.2,
O=[N+]([O-])c1ccc(C=Nc2cccc3ccccc23)s1,8.33,
CCCNC(=O)c1nnsc1S(=O)c1ccc(Cl)cc1 (stereo not given),1.53,
O=[N+]([O-])c1cnc(Sc2ccncn2)s1,3.02,
CCOC(=O)c1cc([N+](=O)[O-])c([N+](=O)[O-])cc1NC(C)=O,2.08,
